In ChEMBL document CHEMBL3885861, “Open TG-GATES”:

Species on record: Rattus norvegicus
Assay: Open TG-GATES - Regimen: Daily Repeat
Format: toxicity, organism-based, Sprague-Dawley
Set-up: regimen Daily Repeat, gender Male, age 6 weeks
Settings: in vivo, po, 100 mg/kg, route gavage, dose level Middle; for APTT / Bas / Eos / Fbg / Hb / Ht / Lym / MCH / MCHC / MCV / Mono / Neu / PT / Plat / RBC / Ret / WBC: tissue Blood; for KIDNEY_L / KIDNEY_R / KIDNEY_TOTAL: tissue Kidney; for LIVER: tissue Liver; for A/G / ALP / ALT / AST / BUN / CRE / Ca / Cl / DBIL / GLC / IP / K / LDH / Na / PL / RALB / TBIL / TC / TG / TP / gamma-GTP: tissue Plasma

Brc1ccccc1 [BROMOBENZENE]
TERMINAL_BW (72 h, time 3 day): 207.5 g | APTT (72 h, time 3 day): 14.7 s | Bas (72 h, time 3 day): 0.2% | Eos (72 h, time 3 day): 1% | Fbg (72 h, time 3 day): 300.2 mg/dL | Hb (72 h, time 3 day): 12.9 g/dL | Ht (72 h, time 3 day): 38.4% | Lym (72 h, time 3 day): 74.2% | MCH (72 h, time 3 day): 20.5 pg | MCHC (72 h, time 3 day): 33.5% | MCV (72 h, time 3 day): 61.1 fL | Mono (72 h, time 3 day): 3.5% | Neu (72 h, time 3 day): 20.5% | PT (72 h, time 3 day): 11.8 s | Plat (72 h, time 3 day): 118.8 x10_4/uL | RBC (72 h, time 3 day): 629 x10_4/ul | Ret (72 h, time 3 day): 6.2% | WBC (72 h, time 3 day): 95.6 x10_2/uL | KIDNEY_L (72 h, time 3 day): 0.9 g | KIDNEY_R (72 h, time 3 day): 0.9 g | KIDNEY_TOTAL (72 h, time 3 day): 1.8 g | LIVER (72 h, time 3 day): 11.6 g | A/G (72 h, time 3 day): 0.9 | ALP (72 h, time 3 day): 1811.5 IU/L | ALT (72 h, time 3 day): 56.5 IU/L | AST (72 h, time 3 day): 78.5 IU/L | BUN (72 h, time 3 day): 13 mg/dL | CRE (72 h, time 3 day): 0.2 mg/dL | Ca (72 h, time 3 day): 10.4 mg/dL | Cl (72 h, time 3 day): 106 meq/L | DBIL (72 h, time 3 day): 0.015 mg/dL | GLC (72 h, time 3 day): 179.8 mg/dL | IP (72 h, time 3 day): 6.4 mg/dL | K (72 h, time 3 day): 4.1 meq/L | LDH (72 h, time 3 day): 101.8 IU/L | Na (72 h, time 3 day): 142.2 meq/L | PL (72 h, time 3 day): 166.8 mg/dL | RALB (72 h, time 3 day): 2.7 g/dL | TBIL (72 h, time 3 day): 0.0575 mg/dL | TC (72 h, time 3 day): 88 mg/dL | TG (72 h, time 3 day): 66 mg/dL | TP (72 h, time 3 day): 5.7 g/dL | gamma-GTP (72 h, time 3 day): 1.2 IU/L | TERMINAL_BW ([…], time 7 day): 245.7 g | TERMINAL_BW ([…], time 14 day): 288.5 g | TERMINAL_BW ([…], time 28 day): 381.1 g | APTT ([…], time 7 day): 13.4 s | Bas ([…], time 7 day): 0% | Eos ([…], time 7 day): 1% | Fbg ([…], time 7 day): 317.4 mg/dL | Hb ([…], time 7 day): 13.3 g/dL | Ht ([…], time 7 day): 39.3% | Lym ([…], time 7 day): 75.8% | MCH ([…], time 7 day): 21.2 pg | MCHC ([…], time 7 day): 33.9% | MCV ([…], time 7 day): 62.5 fL | Mono ([…], time 7 day): 3% | Neu ([…], time 7 day): 19.8% | PT ([…], time 7 day): 12.2 s | Plat ([…], time 7 day): 112.7 x10_4/uL | RBC ([…], time 7 day): 629 x10_4/ul | Ret ([…], time 7 day): 6.9% | WBC ([…], time 7 day): 98.3 x10_2/uL | APTT ([…], time 14 day): 16.8 s | Bas ([…], time 14 day): 0% | Eos ([…], time 14 day): 1% | Fbg ([…], time 14 day): 326.4 mg/dL | Hb ([…], time 14 day): 14.2 g/dL | Ht ([…], time 14 day): 40.9% | Lym ([…], time 14 day): 78% | MCH ([…], time 14 day): 20.7 pg | MCHC ([…], time 14 day): 34.7% | MCV ([…], time 14 day): 59.8 fL | Mono ([…], time 14 day): 2.8% | Neu ([…], time 14 day): 18.2% | PT ([…], time 14 day): 11.9 s | Plat ([…], time 14 day): 113.2 x10_4/uL | RBC ([…], time 14 day): 685.4 x10_4/ul | Ret ([…], time 14 day): 4.6% | WBC ([…], time 14 day): 74.5 x10_2/uL | APTT ([…], time 28 day): 17.1 s | Bas ([…], time 28 day): 0% | Eos ([…], time 28 day): 1% | Fbg ([…], time 28 day): 304.8 mg/dL | Hb ([…], time 28 day): 14.6 g/dL | Ht ([…], time 28 day): 41.5% | Lym ([…], time 28 day): 73.8% | MCH ([…], time 28 day): 19.3 pg | MCHC ([…], time 28 day): 35.1% | MCV ([…], time 28 day): 55.1 fL | Mono ([…], time 28 day): 3% | Neu ([…], time 28 day): 21.2% | PT ([…], time 28 day): 12.9 s | Plat ([…], time 28 day): 109.2 x10_4/uL | RBC ([…], time 28 day): 754.6 x10_4/ul | Ret ([…], time 28 day): 2.6% | WBC ([…], time 28 day): 103.2 x10_2/uL | KIDNEY_L ([…], time 7 day): 1.1 g | KIDNEY_R ([…], time 7 day): 1.1 g | KIDNEY_TOTAL ([…], time 7 day): 2.2 g | KIDNEY_L ([…], time 14 day): 1.1 g | KIDNEY_R ([…], time 14 day): 1.1 g | KIDNEY_TOTAL ([…], time 14 day): 2.2 g | KIDNEY_L ([…], time 28 day): 1.4 g | KIDNEY_R ([…], time 28 day): 1.4 g | KIDNEY_TOTAL ([…], time 28 day): 2.7 g | LIVER ([…], time 7 day): 12.8 g | LIVER ([…], time 14 day): 13.7 g | LIVER ([…], time 28 day): 17 g | A/G ([…], time 7 day): 0.8 | ALP ([…], time 7 day): 1614.4 IU/L | ALT ([…], time 7 day): 43.4 IU/L | AST ([…], time 7 day): 65 IU/L | BUN ([…], time 7 day): 14.8 mg/dL | CRE ([…], time 7 day): 0.2 mg/dL | Ca ([…], time 7 day): 11.1 mg/dL | Cl ([…], time 7 day): 105.2 meq/L | DBIL ([…], time 7 day): 0.014 mg/dL | GLC ([…], time 7 day): 193.2 mg/dL | IP ([…], time 7 day): 7.1 mg/dL | K ([…], time 7 day): 4 meq/L | LDH ([…], time 7 day): 99.8 IU/L | Na ([…], time 7 day): 143 meq/L | PL ([…], time 7 day): 149 mg/dL | RALB ([…], time 7 day): 2.7 g/dL | TBIL ([…], time 7 day): 0.048 mg/dL | TC ([…], time 7 day): 71.6 mg/dL | TG ([…], time 7 day): 84.8 mg/dL | TP ([…], time 7 day): 5.9 g/dL | gamma-GTP ([…], time 7 day): 1 IU/L | A/G ([…], time 14 day): 0.8 | ALP ([…], time 14 day): 1557.8 IU/L | ALT ([…], time 14 day): 39.6 IU/L | AST ([…], time 14 day): 63.4 IU/L | BUN ([…], time 14 day): 14.6 mg/dL | CRE ([…], time 14 day): 0.2 mg/dL | Ca ([…], time 14 day): 10.9 mg/dL | Cl ([…], time 14 day): 107 meq/L | DBIL ([…], time 14 day): 0.008 mg/dL | GLC ([…], time 14 day): 185.6 mg/dL | IP ([…], time 14 day): 5.9 mg/dL | K ([…], time 14 day): 4 meq/L | LDH ([…], time 14 day): 56.6 IU/L | Na ([…], time 14 day): 143.6 meq/L | PL ([…], time 14 day): 150.4 mg/dL | RALB ([…], time 14 day): 2.8 g/dL | TBIL ([…], time 14 day): 0.046 mg/dL | TC ([…], time 14 day): 71.2 mg/dL | TG ([…], time 14 day): 100.6 mg/dL | TP ([…], time 14 day): 6.1 g/dL | gamma-GTP ([…], time 14 day): 1 IU/L | A/G ([…], time 28 day): 0.8 | ALP ([…], time 28 day): 1105.2 IU/L | ALT ([…], time 28 day): 40.8 IU/L | AST ([…], time 28 day): 61.8 IU/L | BUN ([…], time 28 day): 15.4 mg/dL | CRE ([…], time 28 day): 0.3 mg/dL | Ca ([…], time 28 day): 10.6 mg/dL | Cl ([…], time 28 day): 105.6 meq/L | DBIL ([…], time 28 day): 0.016 mg/dL | GLC ([…], time 28 day): 198.8 mg/dL | IP ([…], time 28 day): 5.8 mg/dL | K ([…], time 28 day): 3.9 meq/L | LDH ([…], time 28 day): 86.2 IU/L | Na ([…], time 28 day): 142.4 meq/L | PL ([…], time 28 day): 140.8 mg/dL | RALB ([…], time 28 day): 2.8 g/dL | TBIL ([…], time 28 day): 0.04 mg/dL | TC ([…], time 28 day): 72.8 mg/dL | TG ([…], time 28 day): 108.8 mg/dL | TP ([…], time 28 day): 6.3 g/dL | gamma-GTP ([…], time 28 day): 1 IU/L
